For assay [1], the target named is T1, hepatic lipase (HL) (Homo sapiens, UniProt P11150).
T1 construct: made in house; host or cells: COS cells (conditioned medium, partially purified)
T1 sequence (P11150 23-499): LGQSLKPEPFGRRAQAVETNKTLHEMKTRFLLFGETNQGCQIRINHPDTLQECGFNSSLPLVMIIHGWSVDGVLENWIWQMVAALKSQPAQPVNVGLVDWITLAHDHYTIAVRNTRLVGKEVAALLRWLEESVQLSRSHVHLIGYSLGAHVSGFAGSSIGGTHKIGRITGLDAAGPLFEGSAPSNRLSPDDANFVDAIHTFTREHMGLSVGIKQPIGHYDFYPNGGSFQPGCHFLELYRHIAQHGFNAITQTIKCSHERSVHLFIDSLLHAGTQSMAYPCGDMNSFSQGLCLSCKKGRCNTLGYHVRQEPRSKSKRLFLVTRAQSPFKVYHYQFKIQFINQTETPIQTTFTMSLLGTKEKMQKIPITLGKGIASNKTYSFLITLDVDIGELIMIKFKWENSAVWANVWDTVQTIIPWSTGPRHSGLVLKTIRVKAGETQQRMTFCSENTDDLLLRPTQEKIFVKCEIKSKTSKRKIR
Put plainly: Hepatic lipase (HL) enzymatic assay, fluorescent substrate A10070 in DMPG vesicles. The conditions noted are these: HL partially purified from conditioned media of COS cells; compound preincubated 30 min at 37° C; read-out: HL IC50. In kind it is biochemical. On the procedure: Endothelial lipase (EL) and hepatic lipase (HL) activities were measured using a fluorescent substrate, A10070, (Invitrogen, CA) doped into an artificial vesicle containing DMPG (Avanti Polar Lipids) as the excipient. Vesicles were prepared by combining 571 μL of 29 mM DMPG in a 1:1 mixture of MeOH and CHCl3 with 2000 μL of 1 mM A10070 in a 1:1 mixture of MeOH and CHCl3. The mixture was dried under nitrogen in multiple vials then resuspended in 20 mL total volume of 50 mM HEPES pH 8.0 buffer containing 50 mM NaCl and 0.2 mM EDTA. The sample was allowed to sit at room temperature for 15 min and then was sonicated 3×4 mins on ice with a Branson Sonicator using duty cycle 1. This preparation provides vesicles with a mole fraction of 0.11 for the FRET substrate.
The enzymatic assay was measured using 384-well white Optiplates. Each well contained 20 μL of assay buffer (50 mM HEPES pH 8.0, 50 mM NaCl and 1 mM CaCl2) and 0.25 μL of a DMSO solution containing a compound of interest. EL or HL (10 μL) was added and allowed to incubate with the compound for 30 min at 37° C. The source of EL was conditioned media obtained from HT-1080 cells that were transformed using RAGE technology (Athersys) to overexpress endogenous EL, and HL was partially purified from conditioned media obtained from COS cells overexpressing HL. The reaction was started by the addition of 10 μL of a 1:10 dilution of vesicles. The final total reaction volume was […]. The reaction rates were measured on a Gemini plate reader with an excitation wavelength of 490 nm and an emission wavelength of 530 nm. Readings were taken over a period of 60 minutes, and the slope between 300 and 900 secs of the readout was used to calculate the rate of the reaction.

Assay [2] concerns the target T2, Endothelial lipase (EL) (Homo sapiens, UniProt Q9Y5X9).
T2 construct: HT-1080 cells that were transformed using RAGE technology (Athersys) to overexpress endogenous EL; endogenous in cells; conditioned medium used
T2 sequence (Q9Y5X9 21-500): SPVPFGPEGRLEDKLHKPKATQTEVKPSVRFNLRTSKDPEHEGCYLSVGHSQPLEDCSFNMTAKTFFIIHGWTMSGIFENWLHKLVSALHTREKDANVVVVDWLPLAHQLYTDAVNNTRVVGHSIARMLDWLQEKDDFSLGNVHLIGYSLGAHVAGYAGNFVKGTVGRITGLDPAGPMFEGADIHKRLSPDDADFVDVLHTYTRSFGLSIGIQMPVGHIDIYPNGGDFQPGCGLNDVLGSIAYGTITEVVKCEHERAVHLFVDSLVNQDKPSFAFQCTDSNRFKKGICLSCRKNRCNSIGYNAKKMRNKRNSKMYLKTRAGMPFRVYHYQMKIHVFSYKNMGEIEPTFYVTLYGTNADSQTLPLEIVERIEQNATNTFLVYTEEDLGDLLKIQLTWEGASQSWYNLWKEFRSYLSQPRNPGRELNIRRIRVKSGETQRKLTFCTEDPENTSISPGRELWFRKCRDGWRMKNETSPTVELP
In words: Endothelial lipase (EL) enzymatic assay, fluorescent substrate A10070 in DMPG vesicles. The class given is biochemical. The conditions noted are these: EL from conditioned media of HT-1080 cells; compound preincubated 30 min at 37° C; read-out: EL IC50. An outline of the steps: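 Substrate A10070 sits in sonicated DMPG vesicles at 0.11 mole fraction. Lipase and compound preincubated 30 min, 37° C, in HEPES pH 8.0 buffer with CaCl2.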

As usually defined, the IC50 is the midpoint of a concentration-inhibition curve. Consider `COCCS(=O)(=O)C(c1nnc(CC(=O)NC2CC2)o1)c1nc2ccc(-c3ccc(F)nc3)cc2s1` (stereo not drawn) [Example 250, N-cyclopropyl-2-(5-{[6-(6-fluoropyridin-3-yl)-1,3-benzothiazol-2-yl] (2-methoxyethanesulfonyl)methyl}-1,3,4-oxadiazol-2-yl)acetamide], for which the IC50 in assay [1] came out at 306 nM; in assay [2], 194 nM.

With `CC(O)CCNC(=O)Cc1nnc(C(c2nc3ccc(-c4ccc(C(=O)N5CCOCC5)cc4)cc3s2)S(=O)(=O)Cc2ccccc2)o1` (stereo not drawn) [Example 177, 2-(5-((benzylsulfonyl)(6-(4-(4-morpholinylcarbonyl)phenyl)-1,3-benzothiazol-2-yl)methyl)-1,3,4-oxadiazol-2-yl)-N-(3-hydroxybutyl) acetamide], the IC50 in assay [1] amounted to 591 nM; in assay [2], 14 nM.

Regarding `CS(=O)(=O)C(c1nnc(CNS(N)(=O)=O)o1)c1nc2ccc(-c3cccc(C(=O)NC4CCC(O)CC4)c3)cc2s1` (stereo not drawn) [Example 258, N-(4-hydroxycyclohexyl)-3-{2-[methanesulfonyl({5-[(sulfamoylamino)methyl]-1,3,4-oxadiazol-2-yl})methyl]-1,3-benzothiazol-6-yl}benzamide], the 50% inhibitory concentration (IC50) in assay [1] turned out to be 35 nM; in assay [2], 8 nM.

With `COC1(C)CN(C(=O)c2cccc(-c3ccc4nc(C(c5nnc(CC6(C)NC(=O)NC6=O)o5)S(C)(=O)=O)sc4c3)c2)C1` (stereo not drawn) [Example 222, 5-({5-[methanesulfonyl({6-[3-(3-methoxy-3-methyl-azetidine-1-carbonyl)phenyl]-1,3-benzothiazol-2-yl})methyl]-1,3,4-oxadiazol-2-yl}methyl)-5-methyl-imidazolidine-2,4-dione], the IC50 is 162 nM in assay [1] and 8 nM in assay [2].

`NS(=O)(=O)NCc1nnc(C(c2nc3ccc(-c4ccc(C(=O)N5CCOCC5)cc4)cc3s2)S(=O)(=O)CCNC(=O)OCc2ccccc2)o1` (stereo not drawn) [Example 134, benzyl {2-[({6-[4-(4-morpholinylcarbonyl)phenyl]-1,3-benzothiazol-2-yl}{5-[(sulfamoylamino)methyl]-1,3,4-oxadiazol-2-yl}methyl)sulfonyl]ethyl} carbamate]: the IC50 was 307 nM in assay [1] and 20 nM in assay [2].

Turning to `CC1(Cc2nnc(C(c3nc4ccc(-c5cccc(C(=O)N6CC[C@H](O)C6)c5)cc4s3)S(C)(=O)=O)o2)NC(=O)NC1=O` (stereo partly drawn) [Example 207, 5-({5-[(6-{3-[(3S)-3-hydroxypyrrolidine-1-carbonyl]phenyl}-1,3-benzothiazol-2-yl) (methanesulfonyl)methyl]-1,3,4-oxadiazol-2-yl}methyl)-5-methyl-imidazolidine-2,4-dione], the IC50 in assay [1] is 370 nM; in assay [2], 22 nM.

As to `NS(=O)(=O)NCc1nnc(C(c2nc3ccc(-c4ccc(F)cc4)cc3s2)S(=O)(=O)Cc2ccccc2)o1` (stereo not drawn) [Example 127, N-((5-((benzylsulfonyl)(6-(4-fluorophenyl)-1,3-benzothiazol-2-yl)methyl)-1,3,4-oxadiazol-2-yl)methyl) sulfamide], the 50% inhibitory concentration (IC50) in assay [1] and in assay [2] was below 10 nM throughout.

Turning to `CS(=O)(=O)C(c1nnc(CNS(N)(=O)=O)o1)c1nc2ccc(-c3cccc(C(=O)Nc4cccnc4)c3)cc2s1` (stereo not drawn) [Example 263, 3-{2-[methanesulfonyl({5-[(sulfamoylamino)methyl]-1,3,4-oxadiazol-2-yl})methyl]-1,3-benzothiazol-6-yl}-N-(pyridin-3-yl) benzamide], the IC50 in assay [1] was found to be 26 nM; in assay [2] it was 4 nM.

On to `COCc1ccc(-c2ccc3nc(C(c4nnc(CNS(N)(=O)=O)o4)S(=O)(=O)Cc4ccccc4F)sc3c2)cc1` (stereo not drawn) [Example 240, N-({5-[(2-fluorophenyl)methanesulfonyl ({6-[4-(methoxymethyl)phenyl]-1,3-benzothiazol-2-yl})methyl]-1,3,4-oxadiazol-2-yl}methyl) aminosulfonamide], for which the IC50 in assay [1] was determined as 3 nM; in assay [2], 2 nM.

The values above are taken from patent US20140011799A1 (Bristol-Myers Squibb Company, priority 2012, published 2014).
